Experimental data reported in PMC2365101, “Anti-Inflammatory Activity of (Polyphenolic)-Sulfonates and Their Sodium Salts in Rodents” (Metal-Based Drugs, 1998).

Key:
[1] = tested on: CF1 male mice, carrageenan induced edema; assay: Anti-inflammatory screen in mice (carrageenan induced foot edema); type: in vivo; conditions: for Percent of Control (induced edema): CF1 male mice, N=6
Text: Few reports in the literature indicate interaction at these receptor sites other than by peptides or antibodies. […] Blocking these receptors is desirable because the entire inflammation cascade of events is triggered by the early release of TNFa and IL-1. […] Radioisotopes were obtained from New England Nuclear [Dupont, Boston, MA] and substrates and co- factors were obtained from Sigma Chemical Co. [St. Louis, MO]. […] Cell lines were obtained from American Type Culture Collection [Rockville, MD]. In Vivo Tests Anti-inflammatory screen in mice: Male CF male mice weighing 28-32g obtained from Jackson Lab. […] Evaluation of the induced edema was made by injecting 2% carrageenan in 0.9% saline into the plantar region of the foot. The opposite foot injected with 0.9% isotonic saline was used as a base line. […] Salmonella abortus equi [Lot # 69F4003] […] Drugs from 2 to 16 mg/kg, I.P. were administered 2 hr prior and 2 hr post-injection of the LPS and then subsequently for every 24 hr for the length ofthe animals' lives. Deaths were recorded every 12 hr and continued for 96 hr. […] In vitro TNFa andIL-1 Measurements and Cellular Regulation IC-21 mouse macrophages were maintained in RPMI-1640 + 10% FCS + P/S. After the cells had grown to confluency, E. coli LPS at 10 Ixg/ml was added to the medium. Agents were incubated at 12.5 to 100 µM final concentration for 18 hr. The medium (100 btl) was collected for TNFCt determinations. Interleukin-1 [IL-1] release was determined using P388D1 cells which were maintained in RPMI-1640 + 10% FCS + P/S. The L929 bioassay was used to quantitate the TNF and the IL-1 levels. The L929 mouse fibroblasts were grown in DMEM + 10% FCS + P/S to confluency in 96 well plates and incubated with 100 tl ofmedium from […] or P388D cells after 18 hr. The cells were stained with 0.2% crystal violet in 20% MeOH and read at 580 nm using a Molecular Devices scanner (SOFT-max program). High Affinity Binding to Receptors on L929-106 Cells Two laCi of 125I-TNFct (human recombinant, 30 mCi/tg New England Nuclear) or 125I-IL-1 (70-120[.t Ci/lxg,New England Nuclear) was added to confluency L929 cells for 90 min or 5 hr, respectively with 25, 50 and 100 tM of the test compounds 12]. The cells were washed repeatedly with isotonic saline, pH.7.2 and aliquots counted. Prostaglandin cylcooxygenase activity Mouse J774AI macrophages maintained in Dulbecco's modified Eagle's medium + 15% FCS + P/S. Cells (5 x 106) were incubated with agents (5 to 100 ].tM final concentration) and 3H-arachidonic acid (100 Ci/mol) for 60 min at 37C in a CO2 incubator. The reaction was terminated with 2N HCI, the mixture extracted 2 X with ether, and the organic layer evaporated.

[2] = tested on: IL-1 release from P388D1 macrophages; assay: IL-1 release from P388D1 macrophages (L929 bioassay); type: cell-based, mouse; conditions: for IL-1 release, Percent of Control: over 18 hours, N=6; for reduction of IL-1 release: 25 and 50 μM, 18 hr
Text: Few reports in the literature indicate interaction at these receptor sites other than by peptides or antibodies. […] Blocking these receptors is desirable because the entire inflammation cascade of events is triggered by the early release of TNFa and IL-1. […] Radioisotopes were obtained from New England Nuclear [Dupont, Boston, MA] and substrates and co- factors were obtained from Sigma Chemical Co. [St. Louis, MO]. […] Cell lines were obtained from American Type Culture Collection [Rockville, MD]. In Vivo Tests Anti-inflammatory screen in mice: Male CF male mice weighing 28-32g obtained from Jackson Lab. [Bar Harbor, […]] were used to screen agents at 8 or 16 mg/kg intraperitoneal [I.P.] x 2 administered 3 hr and 30 min prior to administering the irritant, according to Winter's protocol. Evaluation of the induced edema was made by injecting 2% carrageenan in 0.9% saline into the plantar region of the foot. The opposite foot injected with 0.9% isotonic saline was used as a base line. […] Salmonella abortus equi [Lot # 69F4003] […] Drugs from 2 to 16 mg/kg, I.P. were administered 2 hr prior and 2 hr post-injection of the LPS and then subsequently for every 24 hr for the length ofthe animals' lives. Deaths were recorded every 12 hr and continued for 96 hr. […] In vitro TNFa andIL-1 Measurements and Cellular Regulation IC-21 mouse macrophages were maintained in RPMI-1640 + 10% FCS + P/S. After the cells had grown to confluency, E. coli LPS at 10 Ixg/ml was added to the medium. Agents were incubated at 12.5 to 100 µM final concentration for 18 hr. The medium (100 btl) was collected for TNFCt determinations. Interleukin-1 [IL-1] release was determined using P388D1 cells which were maintained in RPMI-1640 + 10% FCS + P/S. The L929 bioassay was used to quantitate the TNF and the IL-1 levels. The L929 mouse fibroblasts were grown in DMEM + 10% FCS + P/S to confluency in 96 well plates and incubated with 100 tl ofmedium from […] or P388D cells after 18 hr. The cells were stained with 0.2% crystal violet in 20% MeOH and read at 580 nm using a Molecular Devices scanner (SOFT-max program). High Affinity Binding to Receptors on L929-106 Cells Two laCi of 125I-TNFct (human recombinant, 30 mCi/tg New England Nuclear) or 125I-IL-1 (70-120[.t Ci/lxg,New England Nuclear) was added to confluency L929 cells for 90 min or 5 hr, respectively with 25, 50 and 100 tM of the test compounds 12]. The cells were washed repeatedly with isotonic saline, pH.7.2 and aliquots counted. Prostaglandin cylcooxygenase activity Mouse J774AI macrophages maintained in Dulbecco's modified Eagle's medium + 15% FCS + P/S. Cells (5 x 106) were incubated with agents (5 to 100 ].tM final concentration) and 3H-arachidonic acid (100 Ci/mol) for 60 min at 37C in a CO2 incubator. The reaction was terminated with 2N HCI, the mixture extracted 2 X with ether, and the organic layer evaporated.

Molecule | Percent of Control (induced edema) ([1]; 16 mg/Kg X 2, I.P.) | reduction of edema ([1]; 16 mg/kg X 2) | IL-1 release, Percent of Control ([2]; 12.5 μM) | IL-1 release, Percent of Control ([2]; 25 μM) | IL-1 release, Percent of Control ([2]; 50 μM) | reduction of IL-1 release [2] | Percent of Control (induced edema) ([1]; 8 mg/Kg X 2, I.P.)
COc1c2cc(S(=O)(=O)[O-])cc1Cc1cc(S(=O)(=O)[O-])cc(c1OC)Cc1cc(S(=O)(=O)[O-])cc(c1OC)Cc1cc(S(=O)(=O)[O-])cc(c1OC)Cc1cc(S(=O)(=O)[O-])cc(c1OC)Cc1cc(S(=O)(=O)[O-])cc(c1OC)C2.[Na+].[Na+].[Na+].[Na+].[Na+].[Na+] [Compound 6] | 48+3% of Control | greater than 40% | 6 + 2% of Control | 0% of Control | 0% of Control | > 95% | –
Pentosan sulfate [Pentosan polysulfate, reference compound] | 49+4% of Control | – | – | – | – | – | –
CC(=O)Oc1c2cc(S(=O)(=O)[O-])cc1Cc1cc(S(=O)(=O)[O-])cc(c1OC(C)=O)Cc1cc(S(=O)(=O)[O-])cc(c1OC(C)=O)Cc1cc(S(=O)(=O)[O-])cc(c1OC(C)=O)Cc1cc(S(=O)(=O)[O-])cc(c1OC(C)=O)Cc1cc(S(=O)(=O)[O-])cc(c1OC(C)=O)Cc1cc(S(=O)(=O)[O-])cc(c1OC(C)=O)Cc1cc(S(=O)(=O)[O-])cc(c1OC(C)=O)C2.[Na+].[Na+].[Na+].[Na+].[Na+].[Na+].[Na+].[Na+] [Compound 8] | 38+3% of Control | – | 66 + 4% of Control | 0% of Control | 0% of Control | > 95% | 70 + 6% of Control
